Experimental data as given in the NIST ThermoML archive (doi:10.1016/j.fluid.2005.01.001).

Conditions: Liquid

FCC(F)(F)F [1,1,1,2-tetrafluoroethane]
Conditions | vapor or sublimation pressure [kPa]
277.22 K | 339.5
279.24 K | 364
281.25 K | 389.7
283.24 K | 416.7
285.26 K | 445.4
287.27 K | 475.4
289.27 K | 506.9
291.29 K | 539.9
293.31 K | 575.1
295.3 K | 610.8
297.32 K | 649.3
299.21 K | 685.5
299.31 K | 688.7
299.34 K | 689.4
301.19 K | 726.7
301.3 K | 730
303.06 K | 767
303.19 K | 769.8
303.31 K | 773.5
305.33 K | 819.1
307.34 K | 866.6
309.35 K | 916
311.35 K | 967.3
313.31 K | 1019.3
315.36 K | 1076.9
317.32 K | 1133
319.38 K | 1195.5
321.34 K | 1256.1
329.37 K | 1532.3
335.39 K | 1767.4
337.41 K | 1851.9
339.41 K | 1939.2
341.43 K | 2029.5
343.43 K | 2123
347.44 K | 2319.8
349.46 K | 2419.4
351.46 K | 2530.3
353.48 K | 2641.1
355.48 K | 2755.4
360.48 K | 3054.3

COC [dimethyl ether]
Conditions | vapor or sublimation pressure [kPa]
278.25 K | 317.6
283.2 K | 373.6
288.19 K | 437.4
293.2 K | 509.4
298.19 K | 589.6
303.18 K | 679.2
303.19 K | 678.1
308.19 K | 778.7
313.2 K | 888.8
318.19 K | 1009.5
323.28 K | 1144.5
323.37 K | 1146.2
328.25 K | 1289.2
333.23 K | 1447.2
338.23 K | 1619.9
343.18 K | 1805.3
343.41 K | 1814.4
347.42 K | 1976.8
348.17 K | 2007.3
351.44 K | 2149.6
353.1 K | 2224.5
353.45 K | 2240
355.08 K | 2315.6
355.46 K | 2333.3
357.49 K | 2429.5
359.49 K | 2528.5
360.52 K | 2579.1
